Assay results published in patent US6071710A, “Antikinin compounds and uses thereof” (MUSC Foundation for Research Development, priority 1997, dated 2000).
“Also recorded” adds a separate entry of the source. Values belong to the compound of their own block, whether it stands above or below them. Where no end group is shown, it is not given here.

How the values were obtained:
[1] = published work (11); cited from earlier work
kinin B2 receptors = biological target: T1, kinin B2 receptors (Rattus norvegicus, UniProt P25023); assay: [3H]bradykinin binding assay in VSMC; details: rat aortic smooth muscle cells
T1 construct: endogenous in cells; host or cells: primary rat aortic vascular smooth muscle cells (male Sprague-Dawley), passage 2-4
T1 sequence (P25023 1-396): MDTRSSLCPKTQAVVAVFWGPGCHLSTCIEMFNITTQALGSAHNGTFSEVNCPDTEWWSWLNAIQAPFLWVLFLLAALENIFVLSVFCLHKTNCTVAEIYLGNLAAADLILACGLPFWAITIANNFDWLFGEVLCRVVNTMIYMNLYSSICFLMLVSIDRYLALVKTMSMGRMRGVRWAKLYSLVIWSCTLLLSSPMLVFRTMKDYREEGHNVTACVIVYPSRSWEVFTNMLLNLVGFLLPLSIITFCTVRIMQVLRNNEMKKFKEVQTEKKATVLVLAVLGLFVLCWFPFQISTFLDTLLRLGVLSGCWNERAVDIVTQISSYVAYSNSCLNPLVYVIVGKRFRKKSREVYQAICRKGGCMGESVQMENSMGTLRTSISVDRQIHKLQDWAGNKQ
Experimental: VSMC grown in 6-well plates were washed with and allowed to equilibrate with 1 ml of binding buffer (25 mM TES, 1 mM phenanthroline, 15 μM captopril, 0.1% BSA, pH 7.0). Saturation binding experiments were performed by incubating cells with [^-3 H] bradykinin (60,000 cpm/well) and varying the concentration of unlabeled bradykinin (5×10^-11 -1×10^-6 M) in binding buffer for 2 h at 4° C. Cells were washed 3 times with 2 ml of ice-cold binding buffer and solubilized for 10 min in 1% SDS, 0.1 M NaOH, 0.1 M Na2 CO3 solution and counted for radioactivity. Data were analyzed using the LIGAND program to determine the affinity constants and the receptor number.

[2] = tested on: endotoxin (LPS)-treated anesthetized rats; assay: Endotoxin (LPS) shock in anesthetized rats; type: in vivo, rat; details: 1 μg/kg IV followed by 143 ng/kg/hr, one hour prior to LPS (12 mg/kg IV); vs vehicle/LPS
Experimental: Male Sprague-Dawley rats (220-480 g) were anesthetized with inactin (120 mg/kg, IP). The trachea was cannulated and the animal was allowed to breath 100% O2. Polyvinyl cannulas (Norton Plastics, Akron, Ohio) were inserted into the jugular vein and the femoral artery for the purposes of infusion of saline and agents and for monitoring of blood pressure, respectively, as described for FIGS. 2 and 3. Heart rate was monitored by tachograph and body temperature was maintained at 37° C. After a 2 hour period of equilibration with saline infusion (0.25 ml/hr), peptides (1 μg/kg followed by 143 ng/kg/hr) or saline were administered, followed one hour later by LPS (12 mg/kg). Time of death was taken as time after administration of LPS when there was no longer a detectable ECG. Values shown are the mean ± sem from the indicated number of studies and were compared using either t-test (FIG. 12A) or ANOVA with Fisher's post-hoc t-test (FIG. 12B).

[3] = cited from earlier work
[4] = tested on: spontaneously hypertensive rats; assay: Mean systemic arterial blood pressure after brain injection of BK fragments; type: in vivo, rat; details: hypertensive anesthetized rats, preliminary for BK1-7, BK2-7
Experimental: Experiments were performed on male spontaneously hypertensive rats weighing 250-350 g. Anesthesia and surgical procedures are described (15-17). Following the surgical procedures, animals were allowed to stabilize for 30 minutes. Injections were then made unilaterally into the rostral ventral lateral medulla oblongata. In any given experiment, not more than four doses of the BK fragments were given. Successive injections were alternated between sides after an intervening period of 20 minutes. Mean arterial pressure was measured from a femoral arterial line with a transducer (Statham Laboratories, Inc. Hato Rey, Puerto Rico) and recorded using a polygraph (Grass Instrument Co., Quincy, Mass.). Values shown are the mean changes ± sem.

Compound: RPPGF [RPPGF, Arg-Pro-Pro-Gly-Phe]
- stability in human plasma [1]: highly stable in human plasma

- displacement of specific binding of bradykinin to kinin B2 receptors (kinin B2 receptors): not displaced
Compound: des-arg9-bradykinin (RPPGFSPF; Bradykinin; UniProt P01042 381-388, looked up, fragment)

- displacement of specific binding of bradykinin to kinin B2 receptors (kinin B2 receptors): specifically displaced
Compound: NC(N)=NCCC[C@@H](N)C(=O)N[C@@H](CCCN=C(N)N)C(=O)N1CCC[C@H]1C(=O)N1C[C@H](O)C[C@H]1C(=O)NCC(=O)N[C@@H](Cc1cccs1)C(=O)N[C@@H](CO)C(=O)N1Cc2ccccc2C[C@@H]1C(=O)N1[C@H](C(=O)N[C@@H](CCCN=C(N)N)C(=O)O)C[C@@H]2CCCC[C@@H]21 [HOE140]

Compound: RPPGFSPFR [bradykinin]
- survival time [2]: did not prolong life; also recorded: does not provide protection
- plasma half-life [3]: ~ 15 secs.

Compound: BK2-7: bradykinin fragment PPGFSP (Bradykinin; UniProt P01042 382-387, looked up, fragment)
- systemic mean arterial pressure (MAP) response [4]: affect systemic blood pressure
